Test results from ChEMBL document CHEMBL1147019, “5-Piperazinyl pyridine carboxamide bradykinin B1 antagonists” (Bioorg Med Chem Lett, 2006).

What was measured:
B1 bradykinin receptor [1] = biological target: T1, B1 bradykinin receptor (Homo sapiens, UniProt P46663); experiment: Binding affinity to human BK1 receptor
T1 sequence (P46663 whole entry): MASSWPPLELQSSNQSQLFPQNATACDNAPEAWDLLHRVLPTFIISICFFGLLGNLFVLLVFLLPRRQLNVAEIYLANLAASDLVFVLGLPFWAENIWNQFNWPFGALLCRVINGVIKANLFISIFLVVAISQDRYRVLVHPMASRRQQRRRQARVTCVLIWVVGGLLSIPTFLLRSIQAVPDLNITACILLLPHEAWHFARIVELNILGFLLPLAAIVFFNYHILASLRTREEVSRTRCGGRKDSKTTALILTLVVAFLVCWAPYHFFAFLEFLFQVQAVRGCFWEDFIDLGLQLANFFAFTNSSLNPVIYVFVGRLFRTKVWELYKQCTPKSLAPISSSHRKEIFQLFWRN

B1 bradykinin receptor [2] = biological target: T2, B1 bradykinin receptor (Homo sapiens, UniProt P46663); experiment: Binding affinity to human BK1 receptor E273 mutant
B1 bradykinin receptor [3] = biological target: T2, B1 bradykinin receptor; experiment: Binding affinity to human BK1 receptor D291 mutant
B1 bradykinin receptor [4] = biological target: T2, B1 bradykinin receptor; experiment: Binding affinity to human BK1 receptor Q295 mutant
B1 bradykinin receptor [5] = biological target: T2, B1 bradykinin receptor; experiment: Binding affinity to human BK1 receptor N298 mutant

Row | Ki (B1 bradykinin receptor [1]) [nM] | SMILES | also measured
1 | 815 | COC(=O)c1c(F)cccc1-c1ccc(CNc2ccccn2)c(F)c1 | 
2 | 34 | COC(=O)c1c(F)cccc1-c1ccc(CNc2ccc(C(=O)N3CCN(C(=O)OC)CC3)cn2)c(F)c1 | 
3 | 62 | COC(=O)c1c(F)cccc1-c1ccc(CNc2ccc(C(=O)N3CCN(c4ccccc4)CC3)cn2)c(F)c1 | 
4 | 28 | COC(=O)c1c(F)cccc1-c1ccc(CNc2ccc(C(=O)N3CCN(CC(F)F)CC3)cn2)c(F)c1 | 
5 | > 3000 | COC(=O)c1c(F)cccc1-c1ccc(CNc2cc(C(=O)N3CCCCC3)ccn2)c(F)c1 | 
6 | 17 | COC(=O)c1c(F)cccc1-c1ccc(CNc2ccc(C(=O)N3CCN(C(C)=O)CC3)cn2)c(F)c1 | 
7 | 5.5 | COC(=O)c1c(F)cccc1-c1ccc(CNc2ccc(C(=O)N3CCNCC3)cn2)c(F)c1 | 
8 | 4 | C=CCCN1CCN(C(=O)c2ccc(NCc3ccc(-c4cccc(F)c4C(=O)OC)cc3F)nc2)CC1 | 
9 | 1.7 | COC(=O)c1c(F)cccc1-c1ccc(CNc2ccc(C(=O)N3CCN(CC4CCCC4)CC3)cn2)c(F)c1 | 
10 | 8 | C=CCN1CCN(C(=O)c2ccc(NCc3ccc(-c4cccc(F)c4C(=O)OC)cc3F)nc2)CC1 | 
11 | 2.8 | COC(=O)c1c(F)cccc1-c1ccc(CNc2ccc(C(=O)N3CCN(C4CCCCC4)CC3)cn2)c(F)c1 | 
12 | 3.4 | CCN1CCN(C(=O)c2ccc(NCc3ccc(-c4cccc(F)c4C(=O)OC)cc3F)nc2)CC1 | 
13 | 26 | COC(=O)c1c(F)cccc1-c1ccc(CNc2ccc(C(=O)N3CCN(Cc4ccccc4)CC3)cn2)c(F)c1 | 
14 | 611 | COC(=O)c1c(Cl)cccc1-c1ccc(CNc2cc(CN3CCCCC3)ccn2)c(F)c1 | 
15 | 70 | COC(=O)c1c(F)cccc1-c1ccc(CNc2ccc(C(=O)N3CCCCC3)cn2)c(F)c1 | 
16 | 9.1 | COC(=O)c1c(F)cccc1-c1ccc(CNc2ccc(CN3CCCCC3)cn2)c(F)c1 | 
17 | 2100 | COC(=O)c1c(F)cccc1-c1ccc(CNc2cc(C(=O)N3CCOCC3)ccn2)c(F)c1 | 
18 | 4.4 | COC(=O)c1c(F)cccc1-c1ccc(CNc2ccc(C(=O)N3CCN(C)CC3)cn2)c(F)c1 | 
19 | > 3000 | COC(=O)c1c(Cl)cccc1-c1ccc(CNc2cc(CN3CCOCC3)ccn2)c(F)c1 | 
20 | 0.034 | O=C(C[C@@H]1C(=O)Nc2ccccc2N1S(=O)(=O)c1ccc(Cl)c(Cl)c1)NCCc1ccc(C2=NCCN2)cc1 | Ki (B1 bradykinin receptor [2]): 0.0078 nM; Ki (B1 bradykinin receptor [3]): 0.049 nM; Ki (B1 bradykinin receptor [4]): 0.89 nM; Ki (B1 bradykinin receptor [5]): 0.038 nM
21 | 9.5 | COC(=O)c1c(F)cccc1-c1ccc(CNc2ccc(C(=O)N3CCN(CCC(C)C)CC3)cn2)c(F)c1 | 
22 | 1.7 | CCCN1CCN(C(=O)c2ccc(NCc3ccc(-c4cccc(F)c4C(=O)OC)cc3F)nc2)CC1 | 

Row | Ki (B1 bradykinin receptor [1]) [nM] | SMILES | also measured
23 | 2.2 | COC(=O)c1c(F)cccc1-c1ccc(CNc2ccc(C(=O)N3CCN(C(C)C)CC3)cn2)c(F)c1 | 
24 | 1.5 | COC(=O)c1c(F)cccc1-c1ccc(CNc2ccc(C(=O)N3CCN(C4CCCC4)CC3)cn2)c(F)c1 | 
25 | 3.4 | COC(=O)c1c(F)cccc1-c1ccc(CNc2ccc(C(=O)N3CCN(CC4CCC4)CC3)cn2)c(F)c1 | 
26 | 80 | COC(=O)c1c(F)cccc1-c1ccc(CNc2ccc(C(=O)N3CCOCC3)cn2)c(F)c1 | 
27 | 5.2 | COC(=O)c1c(F)cccc1-c1ccc(CNc2ccc(C(=O)N3CCN(CCF)CC3)cn2)c(F)c1 | 
28 | 2.9 | COC(=O)c1c(F)cccc1-c1ccc(CNc2ccc(C(=O)N3CCN(C4CCC4)CC3)cn2)c(F)c1 | 
29 | 0.045 | COC(=O)c1c(F)cccc1-c1ccc(CNc2ccc(C(=O)N3CCN(c4ccncc4)CC3)cn2)c(F)c1 | Ki (B1 bradykinin receptor [2]): 0.05 nM; Ki (B1 bradykinin receptor [3]): 0.08 nM; Ki (B1 bradykinin receptor [4]): 5.12 nM; Ki (B1 bradykinin receptor [5]): 0.83 nM
30 | 0.71 | COC(=O)c1c(F)cccc1-c1ccc(CNc2nccc(C)c2NC(=O)CC#N)c(F)c1 | 
31 | 213 | COC(=O)c1c(F)cccc1-c1ccc(CNc2ccc(C(=O)N3CCN(C(=O)C(C)(C)C)CC3)cn2)c(F)c1 | 
32 | 184 | COC(=O)c1c(F)cccc1-c1ccc(CNc2ccc(CN3CCOCC3)cn2)c(F)c1 | 
33 | 25 | C#CCN1CCN(C(=O)c2ccc(NCc3ccc(-c4cccc(F)c4C(=O)OC)cc3F)nc2)CC1 | 
34 | 1.5 | CCC(C)N1CCN(C(=O)c2ccc(NCc3ccc(-c4cccc(F)c4C(=O)OC)cc3F)nc2)CC1 (stereo not given) | 
35 | 65 | COC(=O)c1c(F)cccc1-c1ccc(CNc2ccc(C(=O)N3CCN(c4ccccn4)CC3)cn2)c(F)c1 | Ki (B1 bradykinin receptor [2]): 286 nM; Ki (B1 bradykinin receptor [3]): 85 nM; Ki (B1 bradykinin receptor [4]): 10000 nM; Ki (B1 bradykinin receptor [5]): 726 nM
36 | 23 | COC(=O)c1c(F)cccc1-c1ccc(CNc2ccc(C(=O)N3CCN(S(C)(=O)=O)CC3)cn2)c(F)c1 | 
37 | 52 | COC(=O)c1c(F)cccc1-c1ccc(CNc2ccc(C(=O)N3CCN(CC(F)(F)F)CC3)cn2)c(F)c1 | 
38 | 3.3 | C/C=C/CN1CCN(C(=O)c2ccc(NCc3ccc(-c4cccc(F)c4C(=O)OC)cc3F)nc2)CC1 | 
39 | 1.5 | COC(=O)c1c(F)cccc1-c1ccc(CNc2ccc(C(=O)N3CCN(CC(C)C)CC3)cn2)c(F)c1 | 
40 | 1.4 | CCCCN1CCN(C(=O)c2ccc(NCc3ccc(-c4cccc(F)c4C(=O)OC)cc3F)nc2)CC1 | 
41 | 893 | COC(=O)c1c(F)cccc1-c1ccc(CNc2cc(C(=O)N3CCN(C)CC3)ccn2)c(F)c1 | 
42 | 3.5 | COC(=O)c1c(F)cccc1-c1ccc(CNc2ccc(C(=O)N3CCN(c4cccnc4)CC3)cn2)c(F)c1 | 
43 | 0.85 | COC(=O)c1c(F)cccc1-c1ccc(CNc2ccc(C(=O)N3CCN(CC4CC4)CC3)cn2)c(F)c1 | 
